The target of data set [1] is T1, PfCK (Plasmodium falciparum, UniProt Q8IM71).
T1 construct: A truncated form of PfCK (Δ79-440) featuring an N-terminal 6× His-tag; 6xHis (N); host or cells: Escherichia coli BL21 (DE3) Star
The settings on record: reference compounds, cited from earlier work.

Data set [2] concerns P. falciparum strain 3D7. Also noted: method as in PMID 27616047, PMID 29880399, PMID 25089811. Particulars: reference compounds; read-out: IC50 a (In vitro IC50 values against P. falciparum); cited from earlier work.
Data set [3] has as its target T1, PfCK. Put plainly: Spectrophotometric coupled enzymatic assay for PfCK activity (substrate choline). The format is biochemical. The settings on record: for remaining activity at 25 µM: read-out: PfCK Fractional Activity at 25 µM; for IC50: IC50 PfCK b (compound concentration required to inhibit PfCK enzyme by 50%), substrate choline 4 mM, ATP 2 mM. As to the method: A truncated form of PfCK (Δ79-440) featuring an N-terminal 6× His-tag was purchased from Genescript (Piscataway, NJ, USA), cloned into a pET-28a vector and transformed into Escherichia coli BL21 (DE3) Star cells (Invitrogen, Carlsbad, CA, USA). The transformed bacteria were cultured in Luria-Bertani (LB) medium at 37 °C until OD600 = 0.6 and the expression was induced with 1 mM isopropyl β-D-1-thiogalactopyranoside (IPTG). The cell culture was grown overnight at 20 °C and 180 rpm. Cells were pelleted by centrifugation at 10,000 rpm, resuspended in 50 mM Tris/HCl pH 7.5, 500 mM NaCl, 0.2 mM phenylmethylsulphonyl fluoride (PMSF, Sigma Aldrich, St. Luis, MO, USA), DNase (Sigma Aldrich, St. Luis, MO, USA), 0.5 mM β-mercaptoethanol (Sigma Aldrich, St. Luis, MO, USA) and sonicated. Separation of the soluble from the insoluble fraction was obtained by centrifugation at 15,000 rpm and 4 °C. The target enzyme was purified by a two-step purification protocol. In the first step, the cell lysate was incubated for 45 min with Ni-NTA resin (Qiagen, Venlo, The Netherlands) in a gravity column. Then, the column was washed with 40 column volumes (CV) of 50 mM Tris/HCl pH 7.5, 300 mM NaCl, 10 mM imidazole and 1 CV of 50 mM Tris/HCl pH 7.5, 300 mM NaCl, 40 mM imidazole. Finally, the His-tagged enzyme was eluted from the column using a 50 mM Tris/HCl pH 7.5, 300 mM NaCl, 400 mM imidazole buffer. A subsequent size-exclusion chromatography step was implemented to further polish the sample using a HiPrep 26/60 Sephacryl 100 HR column (GE Healthcare, Little Chalfont, Buckinghamshire, UK) previously equilibrated with 20 mM Tris/HCl pH 7.5, 150 mM NaCl buffer. This second purification step afforded a pure protein sample. The protein production yield was estimated to be nearly 2.5 mg of recombinant enzyme per liter of bacterial culture.
A spectrophotometric 96-well plate assay for PfCK activity was established based on an assay previously described. The reaction mix was composed as follows: 100 mM Tris/HCl pH 7.5, 100 mM KCl, 10 mM MgCl2, 0.5 mM phosphoenolpyruvate, 0.25 mM NADH, 4 U of pyruvate kinase, 5 U lactate dehydrogenase, 2 mM ATP, 4 mM choline chloride and different concentrations of the selected compounds. All the necessary compounds for the assay were purchased from Sigma Aldrich (St. Luis, MO, USA) and the final assay volume was 200 μL. The enzymatic reaction was initiated by the addition of the enzyme at less than 10 nM concentration and the reaction rates were measured by monitoring the decrease in the absorbance at 340 nm for 20 min at room temperature using a Spark10M instrument (Tecan). Finally, the IC50 values for each compound were determined by plotting the enzyme fractional activity (f.a.) against the logarithm of compound concentration (log[I]). Curve-fitting was performed with a dose-response curve from Origin (OriginLab Corporation, Northampton, MA, USA), using the following equation: f.a.=1/1+10^logIC50−logI
All data points were collected in triplicate and the final dose-response curves were plotted with MATLAB (R2018a (9.4.0.813654), 2018, MathWorks, Natick, MA, USA). See curves in Figure S1 in Supplementary Materials.

Data set [4] deals with P. falciparum strain 3D7. Put plainly: Antimalarial activity, P. falciparum lactate dehydrogenase growth inhibition assay. The format is cell-based, Plasmodium falciparum. The settings on record: for IC50: Plasmodium falciparum; for fold difference in antimalarial activity, bipyridinyl vs biphenylic counterparts: Fg-13 and Fg-17 vs Fg-14 and Fa-21. As to the method: Parasites of the P. falciparum strain 3D7 were grown in fresh group 0 positive human erythrocytes, obtained from the Centro Regional de Transfusion Sanguínea-SAS (Granada, Spain) and suspended at 5% haematocrit in RPMI 1640 containing 2% human serum, 0.2% NaHCO3, 0.5% Albumax II, 150 μM hypoxanthine, and […] gentamicin. Flasks were incubated at 37 °C, under 5% CO2 and 95% air mixture. […] The stock culture was then diluted with complete medium and non-parasitized erythrocytes to yield a haematocrit of 2% and parasitemia of 0.25%. Stock solutions of the test drugs were prepared at an initial concentration of 200 mM in DMSO, serially diluted and dispensed into triplicate in 96-well plates to yield final concentrations ranging from 0.0039 to 2 μM. The final well volume was 200 μL with a final concentration of DMSO 0.001%. Each plate also included positive growth controls, where only medium were added, and negative growth controls with 100 nM of chloroquine. […] A multidrop dispenser was used to add 50 μL of synchronized parasite culture per well. After 72 h of growth in presence of test compounds, the plates were stored frozen at −20 °C for at least 24 h. Next, they were thawed at room temperature. Parasite growth inhibition assays and IC50 determinations were carried out following the P. falciparum lactate dehydrogenase assay where parasite viability is quantified by measuring LDH activity upon APAD+ addition, a cofactor that is specific to the Plasmodium enzyme. To evaluate LDH activity, 140 μL of freshly made reaction mix, containing 143 mM sodium L-lactate, 143 μM APAD, 178.75 μM NBT, 1 U/mL diaphorase, 0.7% Tween 20 and 100 mM Tris-HCl (pH 8.0) were dispensed into plates. After 10 min of incubation in the dark at room temperature, absorbance was measured at 630 nm with a vmax precision multiwell plate reader from Molecular Devices, by using the accompanying SOFT maxPro software for analysis.

[5] abbreviates: Erythrocyte, P. falciparum 3D7 in human erythrocytes, 72 h, LDH readout, read-out: IC50 a (In vitro IC50 values against P. falciparum).

Where two headings read alike, the source gives them in different places. Bounds are passed on as bounds.

T1 sequence (Q8IM71 entry or part of it): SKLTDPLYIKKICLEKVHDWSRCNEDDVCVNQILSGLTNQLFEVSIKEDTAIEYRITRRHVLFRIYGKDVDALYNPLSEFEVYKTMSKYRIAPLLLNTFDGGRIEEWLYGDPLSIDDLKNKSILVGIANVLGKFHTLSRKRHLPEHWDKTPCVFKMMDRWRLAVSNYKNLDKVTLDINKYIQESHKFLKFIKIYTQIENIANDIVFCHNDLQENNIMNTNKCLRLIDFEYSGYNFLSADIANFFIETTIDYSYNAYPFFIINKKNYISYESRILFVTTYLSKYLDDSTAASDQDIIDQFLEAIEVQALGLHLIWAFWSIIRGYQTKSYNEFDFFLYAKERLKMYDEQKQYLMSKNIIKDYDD

Take `CN(C)c1cc[n+](Cc2ccc(OCCOc3ccc(C[n+]4ccc(N(C)C)cc4)cc3)cc2)cc1` [10a]: the “inhibition of PfCK depending on substrate (in words)” value at PfCK [1] (choline kinase or ethanolamine kinase activity) is listed as “no inhibition of the enzyme in its choline kinase or ethanolamine kinase activity is observed”. In addition, the IC50 with P. falciparum strain 3D7 [2] is 0.016 ± 0.001 µM.
For the compound `Clc1ccc2c(N3CCCCCC3)cc[n+](Cc3ccc(OCCOc4ccc(C[n+]5ccc(N6CCCCCC6)c6ccc(Cl)cc65)cc4)cc3)c2c1` [10k], the IC50 on PfCK [1] (read-out: IC50 PfCK b (compound concentration required to inhibit PfCK enzyme by 50%)) is 10.9 ± 0.124 µM; in the data set with P. falciparum strain 3D7 [2], 0.035 ± 0.004 µM.
On to `CN(C)c1cc[n+](Cc2ccc(-c3ccc(C[n+]4ccc(N(C)c5ccc(Cl)cc5)cc4)cc3)cc2)cc1` [BR-31], for which, in the data set with P. falciparum strain 3D7 [2], the IC50 is 0.007 ± 0.0006 µM.
`CN(C)c1cc[n+](Cc2ccc(CCCCc3ccc(C[n+]4ccc(N(C)c5ccc(Cl)cc5)cc4)cc3)cc2)cc1` [BR-33]: in the data set with P. falciparum strain 3D7 [2], the IC50 was 0.045 ± 0.003 µM.
In turn, `[Br-].[Br-].c1cc2c(N3CCCCCC3)nc[n+](Cc3ccc(CCCCc4ccc(C[n+]5cnc(N6CCCCCC6)c6ccsc65)cc4)cc3)c2s1` [Ff-35, (1,1’((butane1,4diylbis(4,1phenylene))bis(methylene))bis(4-(azepan-1-yl)thieno[2,3-d]pyrimidin-1-ium)) bromide] registered a melting point of 117 to 119 °C. The remaining activity at 25 µM at PfCK [3] came to 57.6 ± 12.3%. Besides, the IC50 in the data set on P. falciparum strain 3D7 [4] (setting [5]) turned out to be 0.0484 µM.
In the case of `[Br-].[Br-].c1cc2c(s1)c(N1CCCC1)cc[n+]2Cc1ccc(CCc2ccc(C[n+]3ccc(N4CCCC4)c4sccc43)cc2)cc1` [Fg-11, 4,4’-((ethane-1,2-diylbis(4,1-phenylene))bis(methylene))bis(7-(pyrrolidin-1-yl)thieno[3,2-b]pyridin-4-ium) bromide], the melting point was in the range of 253 to 255 °C. Also, on PfCK [3], the IC50 worked out at 16.5 ± 1.43 µM and the remaining activity at 25 µM came to 33 ± 1.48%. For the same compound, in the data set with P. falciparum strain 3D7 [4] (setting [5]), the IC50 is 0.232 µM.
As to `[Br-].[Br-].c1cc2c(N3CCCC3)nc[n+](Cc3ccc(-c4ccc(C[n+]5cnc(N6CCCC6)c6ccsc65)cn4)nc3)c2s1` [Fg-13, 1,1’-([2,2’-bipyridine]-5,5’-diylbis(methylene))bis(4-(pyrrolidin-1-yl)thieno[2,3-d]pyrimidin-1-ium) bromide], the melting point lay in the range of 238 to 240 °C. Also, on PfCK [3], the remaining activity at 25 µM stood at 99.1 ± 12%. For the same compound, the “fold difference in antimalarial activity, bipyridinyl vs biphenylic counterparts” value in the data set with P. falciparum strain 3D7 [4] is reported as greater than 10 fold. For the same compound, in the data set with P. falciparum strain 3D7 [4] (setting [5]), the IC50 was determined as 0.143 µM.
With `[Br-].[Br-].c1cc2c(N3CCCC3)nc[n+](Cc3ccc(CCc4ccc(C[n+]5cnc(N6CCCC6)c6ccsc65)cc4)cc3)c2s1` [Fg-15, 1,1’-((ethane-1,2-diylbis(4,1-phenylene))bis(methylene))bis(4-(pyrrolidin-1-yl)thieno[2,3-d]pyrimidin-1-ium) bromide], the melting point lay within 293 to 295 °C. Further, the remaining activity at 25 µM on PfCK [3] stood at 97.5 ± 9.22%. For the same compound, the IC50 with P. falciparum strain 3D7 [4] (3D7, Erythrocyte, infected erythrocytes, P. falciparum, read-out: antimalarial activity (IC50), as given in the text) is roughly 0.011 µM. In addition, the IC50 in the data set with P. falciparum strain 3D7 [4] (setting [5]) is 0.0127 µM.
Take `[Br-].[Br-].c1cc2c(s1)c(N1CCCC1)nc[n+]2Cc1ccc(CCc2ccc(C[n+]3cnc(N4CCCC4)c4sccc43)cc2)cc1` [Fg-16, 1,1’-((ethane-1,2-diylbis(4,1-phenylene))bis(methylene))bis(4-(pyrrolidin-1-yl)thieno[3,2-d]pyrimidin-1-ium) bromide]: the melting point was 231 to 233 °C. Also, at PfCK [3], the IC50 is 26.5 ± 2.44 µM and the remaining activity at 25 µM amounted to 79.7 ± 10.3%. Besides, in the data set with P. falciparum strain 3D7 [4] (setting [5]), the IC50 is 0.0206 µM.
Compound `[Br-].[Br-].c1cc2c(s1)c(N1CCCC1)nc[n+]2Cc1ccc(-c2ccc(C[n+]3cnc(N4CCCC4)c4sccc43)cn2)nc1` [Fg-17, 1,1’-([2,2’-bipyridine]-5,5’-diylbis(methylene))bis(4-(pyrrolidin-1-yl)thieno[3,2-d]pyrimidin-1-ium) bromide] displayed a melting point of 330 to 332 °C. Further, on PfCK [3], the remaining activity at 25 µM came to 50.3 ± 7.88%. The “fold difference in antimalarial activity, bipyridinyl vs biphenylic counterparts” value in the data set with P. falciparum strain 3D7 [4] was greater than 10 fold. The IC50 with P. falciparum strain 3D7 [4] (setting [5]) stood at 0.227 µM.
The compound `[Br-].[Br-].c1cc2c(N3CCCCCC3)nc[n+](Cc3ccc(-c4ccc(C[n+]5cnc(N6CCCCCC6)c6ccsc65)cn4)nc3)c2s1` [Fg-20, 1,1’-([2,2’-bipyridine]-5,5’-diylbis(methylene))bis(4-(azepan-1-yl)thieno[2,3-d]pyrimidin-1-ium) bromide] registered a melting point of 289 to 291 °C. For the same compound, on PfCK [3], the remaining activity at 25 µM was 96.6 ± 13.1%. For the same compound, in the data set on P. falciparum strain 3D7 [4] (setting [5]), the IC50 came to 0.0976 µM.
For `[Br-].[Br-].c1cc2c(N3CCCCC3)nc[n+](Cc3ccc(CCc4ccc(C[n+]5cnc(N6CCCCC6)c6ccsc65)cc4)cc3)c2s1` [Fg-31, 1,1’-((ethane-1,2-diylbis(4,1-phenylene))bis(methylene))bis(4-(piperidin-1-yl)thieno[2,3-d]pyrimidin-1-ium) bromide] the same measures were 295 to 297 °C, 87.4 ± 2.2% and 0.0347 µM.
Taken in the same sequence, the figures for `[Br-].[Br-].c1cc2c(N3CCCCC3)nc[n+](Cc3ccc(-c4ccc(C[n+]5cnc(N6CCCCC6)c6ccsc65)cn4)nc3)c2s1` [Fg-32, 1,1’-([2,2’-bipyridine]-5,5’-diylbis(methylene))bis(4-(piperidin-1-yl)thieno[2,3-d]pyrimidin-1-ium) bromide] were 267 to 269 °C, 83.8 ± 9.53% and greater than 0.25 µM.
For `C[N+]1(C)CCOC(O)(c2ccc(-c3ccc(C4(O)C[N+](C)(C)CCO4)cc3)cc2)C1` (centres unmarked) [HC-3], in the data set with P. falciparum strain 3D7 [2], the IC50 is greater than 50 µM.
For `CN(C)c1cc[n+](Cc2ccc(CCCCc3ccc(C[n+]4ccc(N(C)C)cc4)cc3)cc2)cc1` [MN58b], the IC50 in the data set with P. falciparum strain 3D7 [2] was 0.0035 µM.
For the compound `C/[N+](c1ccc(Cl)cc1)=c1\ccn(Cc2ccc(-c3ccc(Cn4cc/c(=[N+](/C)c5ccc(Cl)cc5)c5ccccc54)cc3)cc2)c2ccccc12` [RSM-932A], the IC50 in the data set on P. falciparum strain 3D7 [2] is 0.0265 µM.

The term melting point denotes the temperature, or range, at which the solid turns liquid.
